Reference: paper PMC10600890 (ACS Omega, 2023)

What was measured:
[1] = Intrinsic clearance in primary mouse hepatocytes; type: in vitro ADME; settings: male, CD-1, mouse, cryopreserved primary hepatocytes
[2] = In vivo mouse pharmacokinetics; settings: male, CD-1, mouse, plasma
[3] = Intrinsic clearance in mouse liver S9 fraction; type: in vitro ADME; settings: male, CD-1, mouse
[4] = Intrinsic clearance in mouse liver microsomes; type: in vitro ADME
[5] = system: mice; assay: Dose ranging study of EA tolerability in mice; type: in vivo, mouse; settings: i.p.
[6] = Metabolite ID study of 1i in mouse hepatocytes; type: in vitro ADME; settings: 1i incubated 4 h in mouse primary hepatocytes; relative quantity by UV
[7] = Mouse liver microsomal stability, single 30 min time point; type: in vitro ADME; settings: primary mouse liver microsomes (MLM)

Row | SMILES | CLint scaled at 1 μM [1] | AUC(0-t) ([2]; ip, 10 mg/kg) | Cmax ([2]; ip, 10 mg/kg) | bioavailability ([2]; ip, 10 mg/kg) | half-life ([2]; ip, 10 mg/kg) | AUC(0-t) ([2]; iv, 1 mg/kg) | Cmax ([2]; iv, 1 mg/kg) | Vd ([2]; iv, 1 mg/kg) | clearance ([2]; iv, 1 mg/kg) | half-life ([2]; iv, 1 mg/kg) | CLint scaled [3] | CLint scaled [4] | rel. (%) of peak (metabolite or parent) [6] | parent compound remaining after 30 min [7] | doses that resulted in clinical symptoms including death [5]
1 | CN[C@H]1CCN(c2ccc(Nc3cc(NC4CC4)n4ncc(C#N)c4n3)cc2NC(C)=O)C1 [Compound 2e, (S)-N-(5-((3-Cyano-7-(cyclopropylamino)pyrazolo[1,5-a]pyrimidin-5-yl)amino)-2-(3-(methylamino)pyrrolidin-1-yl)phenyl)acetamide] | 69 mL/min/kg | 1300 ng·h/mL | 1500 ng/mL | 53% | 1.4 h | 250 ng·h/mL | 810 ng/mL | 2.67 L/kg | 69 mL/min/kg | 1.2 h | 4 mL/min/kg | 27 mL/min/kg |  |  | 
2 | C=C(CC)C(=O)c1ccc(OCC(=O)O)c(Cl)c1Cl [EA, ethacrynic acid] |  |  |  |  |  |  |  |  |  |  |  |  |  |  | ≥ 100 mg/kg
3 | CCC(=O)Nc1cc(Nc2cc(NC3CC3)n3ncc(C#N)c3n2)ccc1C [Compound 1a] |  |  |  |  |  |  |  |  |  |  |  |  |  | 40% | 

The next lines start with results.

Row | CLint scaled at 1 μM [1] | AUC(0-t) ([2]; ip, 10 mg/kg) | Cmax ([2]; ip, 10 mg/kg) | bioavailability ([2]; ip, 10 mg/kg) | half-life ([2]; ip, 10 mg/kg) | AUC(0-t) ([2]; iv, 1 mg/kg) | Cmax ([2]; iv, 1 mg/kg) | Vd ([2]; iv, 1 mg/kg) | clearance ([2]; iv, 1 mg/kg) | half-life ([2]; iv, 1 mg/kg) | CLint scaled [3] | CLint scaled [4] | rel. (%) of peak (metabolite or parent) [6] | parent compound remaining after 30 min [7] | SMILES | doses that resulted in clinical symptoms including death [5]
4 | 132 mL/min/kg | 770 ng·h/mL | 670 ng/mL | 40% | 1.5 h | 200 ng·h/mL | 350 ng/mL | 5.07 L/kg | 84 mL/min/kg | 1.8 h | 1 mL/min/kg | < 24 mL/min/kg |  |  | CN[C@H]1CCCN(c2ccc(Nc3cc(NC4CC4)n4ncc(C#N)c4n3)cc2NC(C)=O)C1 [Compound 2c, (S)-N-(5-((3-Cyano-7-(cyclopropylamino)pyrazolo[1,5-a]pyrimidin-5-yl)amino)-2-(3-(methylamino)piperidin-1-yl)phenyl)acetamide] | 
5 |  | 7010 ng·h/mL | 4700 ng/mL | 100% |  |  | 1100 ng/mL |  | 36 mL/min/kg |  |  | < 24 mL/min/kg | 53% |  | CCC(=O)Nc1cc(Nc2cc(NC3CC3)n3ncc(C#N)c3n2)ccc1N1CCC[C@H](NC)C1 [Compound 1i, (S)-N-(5-((3-Cyano-7-(cyclopropylamino)pyrazolo[1,5-a]pyrimidin-5-yl)amino)-2-(3-(methylamino)piperidin-1-yl)phenyl)propionamide] | 
